The target in one assay is T1, insulin receptor (Homo sapiens, UniProt P06213).
T1 construct: expressed in transfected cells; host or cells: CHO-wt IR cells
The experiment in a line: Insulin receptor autophosphorylation, immunokinase assay of CHO-wt-IR cells. It is filed as biochemical.

Assay [1] has as its system PLCγ phosphorylation by RET/PTC. The experiment in a line: Activation (phosphorylation) of PLCγ by RET/PTC in Ret-PTC3-5 cells. As to conditions: Ret-PTC3-5 cells, doxycycline, inhibitor for 24 h; read-out: IC50 of inhibition of PLCγ phosphorylation. The assay is classed as cell-based. The procedure:
Ret-PTC3-5 cells are seeded at 1×10^5 cells/well in 6-well Corning plates. After 3 days, cells are treated with or without doxycycline in the presence of the selected concentration of inhibitor dissolved in solvent for 24 h. Cells are rinsed twice with cold PBS containing 0.1 mM sodium orthovanadate, and left for 20 minutes in ice-cold RIPA buffer. Cell lysates are collected by centrifugation at 4C, and pelletted at 10,000×g for 20 min. Protein assays are performed on aliquots of supernatants by the Coomassie Blue assay (Pierce, Rockford, Ill.). 650 μg of protein are incubated with anti-PLC γ antibody (SantaCruz) or normal IgG overnight. The immune complexes are precipitated with proteinAG agarose (Santa Cruz) previously washed with RIPA buffer as described. After three washes with RIPA buffer, precipitates are eluted into 30 μl sample buffer, heated 10 min at 95 C, and ran on SDS-PAGE gel for Western blot analysis. Blots are initially probed with anti-phosphotyrosine. Loading is normalized by probing with anti-PLC γ antibody (SantaCruz).
It was shown before that upon activation, RET associates with and phosphorylates PLCγ. To further explore the effects of PKI166 on RET kinase activity, the impact of pretreatment with the compound on PLCγ phosphorylation is examined. When grown in the absence of doxycycline, there is no detectable PLCγ phosphorylation. […]

Another assay relates to wild-type NIH3T3 cells. The experiment in a line: Growth of wild-type NIH3T3 cells. As to conditions: 5% serum; 30 nM, 9 days (FIG. 1). The assay is classed as cell-based. The procedure:
(§1) The indicated cell lines are allowed to plate overnight in 6-well plates (NIH3T3 cells at 5×10^4; 3T3-RETC634Y at 2×10^4). They are then grown in the presence of no PKI166, 20 nM PKI166 or 30 nM PKI166 for 9 days, with media changes every 3 days. Bars represent the X±SD of cell counts in 3 independent experiments. The first three columns show the results in NIH3T3-RetCys634Tyr in 5% serum, the next three columns show the results in NIH3T3-RetCys634Tyr in 1% serum and the last two columns the results in NIH3T3 in 5% serum (only vehicle and 30 nM PKI 166).
(§2) […] is the most common germine mutation of RET in multiple endocrine neoplasia type 2A stably expressing a constitutively active form of RET. NIH3T3-RETC634Y cells are transformed, as evidenced by growth in low serum conditions, colony formation in soft agar, and tumor formation in nude mice. […] PKI166 has no effect on growth of wild-type NIH3T3 cells grown in 5% serum (FIG. 1).

In a further assay the test system is NIH3T3-RETC634Y cells. The experiment in a line: Growth of NIH3T3 cells expressing constitutively active RET Cys634Tyr. It is filed as cell-based. The conditions noted are these: 20 nM or 30 nM for 9 days, 5% or 1% serum (FIG. 1). The procedure: as §1, §2
Another assay has as its target T2, EGF-R (Homo sapiens, UniProt P00533).
T2 construct: The human squamous-cell carcinoma cell line A431 stably overexpressing the EGF-R; endogenous in cells; host or cells: A431 human squamous-cell carcinoma cells
The experiment in a line: EGF-R autophosphorylation, immunokinase assay of A431 cells. The assay is classed as biochemical.

A further assay has as its target T3, RET/PTC3 (Homo sapiens, UniProt P07949).
T3 construct: expressed in transfected cells; host or cells: PCCL3 thyroid cell line (clone RET/PTC3-5), doxycycline-inducible expression
T3 sequence (P07949 with tags, fused parts or gaps): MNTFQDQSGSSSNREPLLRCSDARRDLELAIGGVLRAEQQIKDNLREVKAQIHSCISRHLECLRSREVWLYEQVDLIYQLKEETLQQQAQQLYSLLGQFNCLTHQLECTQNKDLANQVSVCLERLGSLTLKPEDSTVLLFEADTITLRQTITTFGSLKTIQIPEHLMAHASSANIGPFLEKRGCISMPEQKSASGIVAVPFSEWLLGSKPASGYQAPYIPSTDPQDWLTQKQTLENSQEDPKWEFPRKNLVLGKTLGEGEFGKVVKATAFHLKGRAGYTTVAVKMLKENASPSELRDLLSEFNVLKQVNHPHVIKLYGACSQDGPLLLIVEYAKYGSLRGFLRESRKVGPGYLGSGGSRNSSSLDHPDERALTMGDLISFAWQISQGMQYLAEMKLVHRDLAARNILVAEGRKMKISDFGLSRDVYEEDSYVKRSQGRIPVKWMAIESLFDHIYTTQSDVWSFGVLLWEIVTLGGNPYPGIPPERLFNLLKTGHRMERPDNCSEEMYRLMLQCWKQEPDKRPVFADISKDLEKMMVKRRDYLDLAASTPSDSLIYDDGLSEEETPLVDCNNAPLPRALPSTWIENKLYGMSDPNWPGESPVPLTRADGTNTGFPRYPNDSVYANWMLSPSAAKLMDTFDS
The experiment in a line: RET/PTC autophosphorylation, in vitro immunokinase assay of RET-IP extracts from RET/PTC3-5 cells. It is filed as biochemical. As to conditions: RET-IP extracts from RET/PTC3-5 cells treated with doxycycline for 48 h. An excerpt:
In order to explore the activity of a compound which decreases the activity of the EGF on RET kinase, for example, a well-differentiated clonal thyroid cell line, PCCL3, conditionally expressing either RET/PTC3 or RET/PTC1 in a tetracyclin (doxycyclin)-dependent manner as described below can be used. The activation of expression of RET/PTC1 or 3 results in dimerization, autophosphorylation, and association with a number of signaling intermediates including Shc and PLCγ. […]
Confluent T-75 flasks are washed with ice cold PBS containing 0.2 mM sodium ortho-vanadate, Cells are then lysed with cold RIPA buffer 1.8 ml (20 mM Tris, pH 7.4, 150 mM NaCl, 1% Nonidet P-40, 1% Tween 20, 20 mM sodium fluoride, 1 mM sodium ortho-vanadate, 1 mM EGTA, […], 0.2 mM PMSF, with Sigma Protease inhibitor mix) with constant agitation at 4 C for 20 min. […] Proteins are subjected to SDS-PAGE gel (7.5%), their phosphorylation measured by Phosphorimager densitometry (Molecular Dynamics, Sunnyvale, Calif.) after transfer to nitrocellulose membranes. Phosphorylation is then normalized to total RET protein in the IP determined by Western analysis using goat polyclonal anti-RET antibody (SantaCruz). […]

Entries after “also recorded” stand apart in the source; their conditions may differ.

The source of these data is patent publication US20040191254A1, “Method of treatment of thyroid cancer” (priority 2001, published 2004).

As usually defined, the IC50 is the concentration that inhibits the measured activity by half.

T2 sequence (P00533 25-1210): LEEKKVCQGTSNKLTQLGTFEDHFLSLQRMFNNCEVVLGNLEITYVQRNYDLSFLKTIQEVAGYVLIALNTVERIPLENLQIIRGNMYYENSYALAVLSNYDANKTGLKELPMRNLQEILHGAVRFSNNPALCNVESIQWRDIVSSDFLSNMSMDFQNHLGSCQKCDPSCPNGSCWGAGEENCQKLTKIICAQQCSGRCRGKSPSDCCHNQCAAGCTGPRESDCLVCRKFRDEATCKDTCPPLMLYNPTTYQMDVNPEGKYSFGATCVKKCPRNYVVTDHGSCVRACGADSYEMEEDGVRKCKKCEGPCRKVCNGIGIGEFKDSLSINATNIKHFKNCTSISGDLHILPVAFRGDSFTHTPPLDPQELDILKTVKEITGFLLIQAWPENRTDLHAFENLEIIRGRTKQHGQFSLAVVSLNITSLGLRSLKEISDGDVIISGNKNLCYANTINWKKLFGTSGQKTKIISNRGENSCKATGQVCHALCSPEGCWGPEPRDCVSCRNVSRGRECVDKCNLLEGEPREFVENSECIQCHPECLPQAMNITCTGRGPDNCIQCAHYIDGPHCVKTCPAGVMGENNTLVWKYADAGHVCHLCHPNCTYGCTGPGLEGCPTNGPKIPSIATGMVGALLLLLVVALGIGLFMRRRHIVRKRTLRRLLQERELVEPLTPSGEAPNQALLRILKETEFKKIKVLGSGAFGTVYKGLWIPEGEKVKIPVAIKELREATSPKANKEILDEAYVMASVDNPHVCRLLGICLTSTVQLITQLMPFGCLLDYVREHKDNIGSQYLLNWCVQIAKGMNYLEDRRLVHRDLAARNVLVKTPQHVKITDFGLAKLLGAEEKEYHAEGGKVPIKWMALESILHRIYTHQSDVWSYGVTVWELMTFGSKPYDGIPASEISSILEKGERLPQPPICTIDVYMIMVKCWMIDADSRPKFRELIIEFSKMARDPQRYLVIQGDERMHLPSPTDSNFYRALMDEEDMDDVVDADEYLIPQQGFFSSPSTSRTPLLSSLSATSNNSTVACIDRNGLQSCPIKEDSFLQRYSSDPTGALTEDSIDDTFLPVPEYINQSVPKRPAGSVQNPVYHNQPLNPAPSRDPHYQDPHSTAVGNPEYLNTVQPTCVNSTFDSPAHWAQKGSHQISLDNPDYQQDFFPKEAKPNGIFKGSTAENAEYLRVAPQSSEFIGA
T1 sequence (P06213 28-1382, species assumed): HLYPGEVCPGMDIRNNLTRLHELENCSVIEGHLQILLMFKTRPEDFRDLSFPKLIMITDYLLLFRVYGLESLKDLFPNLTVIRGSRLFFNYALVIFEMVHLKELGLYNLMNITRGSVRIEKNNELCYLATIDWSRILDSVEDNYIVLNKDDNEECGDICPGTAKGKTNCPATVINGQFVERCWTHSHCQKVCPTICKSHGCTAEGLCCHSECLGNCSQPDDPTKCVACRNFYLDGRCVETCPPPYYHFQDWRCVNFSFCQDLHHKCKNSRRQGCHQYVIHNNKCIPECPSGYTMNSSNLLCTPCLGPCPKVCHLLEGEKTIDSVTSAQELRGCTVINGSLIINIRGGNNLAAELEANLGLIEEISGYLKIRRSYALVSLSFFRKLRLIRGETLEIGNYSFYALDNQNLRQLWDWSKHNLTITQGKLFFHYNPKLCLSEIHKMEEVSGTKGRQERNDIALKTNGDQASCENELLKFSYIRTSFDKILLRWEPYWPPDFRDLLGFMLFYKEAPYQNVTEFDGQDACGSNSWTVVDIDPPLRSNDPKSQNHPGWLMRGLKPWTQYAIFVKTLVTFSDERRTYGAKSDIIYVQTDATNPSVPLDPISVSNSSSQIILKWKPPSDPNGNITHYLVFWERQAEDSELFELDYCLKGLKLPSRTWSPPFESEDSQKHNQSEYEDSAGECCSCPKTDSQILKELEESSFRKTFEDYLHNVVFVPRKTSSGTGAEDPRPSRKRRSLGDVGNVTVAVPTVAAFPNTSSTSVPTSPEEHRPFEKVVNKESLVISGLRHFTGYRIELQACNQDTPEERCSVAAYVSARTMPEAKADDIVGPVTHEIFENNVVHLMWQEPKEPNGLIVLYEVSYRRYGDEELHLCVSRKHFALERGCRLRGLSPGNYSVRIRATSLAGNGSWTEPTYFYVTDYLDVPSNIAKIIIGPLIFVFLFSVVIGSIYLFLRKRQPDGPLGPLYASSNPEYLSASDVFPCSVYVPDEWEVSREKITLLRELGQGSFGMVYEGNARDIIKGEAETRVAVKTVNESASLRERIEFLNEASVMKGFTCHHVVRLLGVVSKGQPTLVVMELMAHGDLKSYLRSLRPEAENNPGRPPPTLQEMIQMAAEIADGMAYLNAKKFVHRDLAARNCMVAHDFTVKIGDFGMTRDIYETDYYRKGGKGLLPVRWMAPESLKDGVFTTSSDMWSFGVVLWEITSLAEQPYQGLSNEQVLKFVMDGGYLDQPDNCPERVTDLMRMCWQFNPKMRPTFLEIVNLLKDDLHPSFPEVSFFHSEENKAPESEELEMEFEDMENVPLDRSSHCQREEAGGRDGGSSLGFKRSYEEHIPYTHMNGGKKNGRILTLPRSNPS

On to `C[C@@H](Nc1ncnc2[nH]c(-c3ccc(O)cc3)cc12)c1ccccc1` [PKI166, (R)-6-(4-hydroxy-phenyl)-4-[(1-phenyl-ethyl)-amino]-7H-pyrrolo[2,3-d]-pyrimidine], for which, at insulin receptor, the “effect on insulin receptor autophosphorylation” value is on record as “no effects”. For the same molecule, the IC50 in assay [1] is roughly 4 nM; against EGF-R, 8 nM; on RET/PTC3, roughly 17.7 nM. For the same molecule, the “effect on growth of wild-type NIH3T3 cells” value in the assay with wild-type NIH3T3 cells is given as “no effect”. Besides, the “inhibition of cell growth of RET-transformed fibroblasts” value with NIH3T3-RETC634Y cells is recorded as “inhibits the growth; also recorded: powerful, concentration dependent inhibition of cell growth”.
